Test results published in US20070128217A1 (priority 2003, published 2007).

Columns and labels:
[1] = system: recombinant human anti-SARS-CoV antibody 03-018; format: binding; set-up: Binding of antibody 03-018 to linear peptides of the N protein of SARS-CoV Urbani / Binding of antibody 03-018 to looped/cyclic peptides of the N protein of SARS-CoV Urbani: unit not given here
[2] = system: control sera (pooled serum of ten healthy LUMC hospital workers; commercial negative donor pooled serum from the Dutch bloodbank); format: binding, human; set-up: Binding of Control serum LUMC to linear peptides / Binding of Control serum Blood-bank to linear peptides / Binding of Control serum LUMC to looped peptides / Binding of Control Serum Blood-Bank to Looped peptides / Binding of Control serum LUMC to linear peptides of the protein M of SARS-CoV Urbani / Binding of Control serum Blood-bank to linear peptides of the protein M of SARS-CoV Urbani / Binding of Control serum LUMC to looped peptides of the protein M of SARS-CoV Urbani / Binding of Control Serum Blood-Bank to Looped peptides of the protein M of SARS-CoV Urbani: unit not given here
[3] = system: rabbit serum obtained by immunizing a rabbit with the SARS-CoV strain Frankfurt 1; format: binding; set-up: Binding of a rabbit serum to linear peptides / Binding of a rabbit serum to looped peptides / Rabbit serum linear peptides / Rabbit serum looped peptides / Binding of a rabbit serum to linear peptides of protein N of SARS-CoV Urbani (Rabbit serum linear peptides) / Binding of a rabbit serum to looped/cyclic peptides of protein N of SARS-CoV Urbani (Rabbit serum looped peptides): unit not given here
[4] = system: antibodies in sera from SARS patients (sera 1a, 1b, 2, 6, 37, 62, London, SARS-yellow, SARS-green); format: binding, human; set-up: Binding of serum 6 to linear peptides of protein X1 of SARS-CoV Urbani / Binding of serum 37 to linear peptides of protein X1 of SARS-CoV Urbani / Binding of serum 6 to looped/cyclic peptide (PEPSCAN-ELISA) / Binding of serum 37 to looped/cyclic peptide (PEPSCAN-ELISA) / Binding of serum 37 to looped/cyclic peptides of protein X1 of SARS-CoV Urbani / Binding of serum 6 to linear peptides of protein X2 / Binding of serum 37 to linear peptides of protein X2 / Binding of serum 37 to looped/cyclic peptides of protein X2 of SARS-CoV Urbani / Binding of serum 6 to linear peptides of protein M of SARS-CoV Urbani / Binding of serum 37 to linear peptides of protein M of SARS-CoV Urbani / Binding of serum 6 to looped/cyclic peptides of protein M of SARS-CoV Urbani / Binding of serum 37 to looped/cyclic peptides of protein M of SARS-CoV Urbani / Binding of serum 6 to linear peptides of protein X3 of SARS-CoV Urbani / Binding of serum 37 to linear peptides of protein X3 of SARS-CoV Urbani / Binding of serum 37 to looped/cyclic peptides of protein X3 of SARS-CoV Urbani / Binding of serum 6 to linear peptides of protein X4 of SARS-CoV Urbani / Binding of serum 37 to linear peptides of protein X4 of SARS-CoV Urbani / Binding of serum 37 to looped/cyclic peptides of protein X4 of SARS-CoV Urbani / Binding of serum 6 to linear peptides of protein X5 of SARS-CoV Urbani / Binding of serum 37 to linear peptides of protein X5 of SARS-CoV Urbani / Binding of serum 37 to looped/cyclic peptides of protein X5 of SARS-CoV Urbani / Binding of serum 6 to linear peptides of protein N of SARS-CoV Urbani / Binding of serum 37 to linear peptides of protein N of SARS-CoV Urbani / Binding of serum 6 to linear peptide (PEPSCAN-ELISA) / Binding of serum 1a to looped/cyclic peptides of protein N of SARS-CoV Urbani / Binding of serum 1b to looped/cyclic peptides of protein N of SARS-CoV Urbani / Binding of serum 2 to looped/cyclic peptides of protein N of SARS-CoV Urbani / Binding of serum 6 to looped/cyclic peptides of protein N of SARS-CoV Urbani / Binding of serum 37 to looped/cyclic peptides of protein N of SARS-CoV Urbani / Binding of serum 62 to looped/cyclic peptides of protein N of SARS-CoV Urbani / Binding of serum London to looped/cyclic peptides of protein N of SARS-CoV Urbani / Binding of serum SARS-green to looped/cyclic peptides of protein N of SARS-CoV Urbani: unit not given here

Row | Sequence | Binding of antibody 03-018 to linear peptides of the N protein of SARS-CoV Urbani [1] | Binding of antibody 03-018 to looped/cyclic peptides of the N protein of SARS-CoV Urbani [1] | Binding of Control Serum Blood-Bank to Looped peptides [2] | Binding of Control serum Blood-bank to linear peptides [2] | Binding of Control serum LUMC to linear peptides [2] | Binding of Control serum LUMC to looped peptides [2] | Binding of a rabbit serum to linear peptides of protein N of SARS-CoV Urbani (Rabbit serum linear peptides) [3] | Binding of a rabbit serum to looped/cyclic peptides of protein N of SARS-CoV Urbani (Rabbit serum looped peptides) [3] | Binding of serum 1a to looped/cyclic peptides of protein N of SARS-CoV Urbani [4] | Binding of serum 1b to looped/cyclic peptides of protein N of SARS-CoV Urbani [4] | Binding of serum 2 to looped/cyclic peptides of protein N of SARS-CoV Urbani [4] | Binding of serum 6 to looped/cyclic peptides of protein N of SARS-CoV Urbani [4] | Binding of serum 37 to looped/cyclic peptides of protein N of SARS-CoV Urbani [4] | Binding of serum 62 to looped/cyclic peptides of protein N of SARS-CoV Urbani [4] | Binding of serum London to looped/cyclic peptides of protein N of SARS-CoV Urbani [4] | Binding of serum SARS-green to looped/cyclic peptides of protein N of SARS-CoV Urbani [4] | Binding of serum SARS-yellow to looped/cyclic peptides of protein N of SARS-CoV Urbani [4] | Binding of serum 1a to linear peptides of protein N of SARS-CoV Urbani [4] | Binding of serum 1b to linear peptides of protein N of SARS-CoV Urbani [4] | Binding of serum 2 to linear peptides of protein N of SARS-CoV Urbani [4] | also measured
1 | NSRNSTPGSSRGNSP | 0.1 | 0.2 | 0.7 | 0.9 | 0.7 | 0.7 | 0.2 | 0.5 | 0.6 | 0.5 | 0.5 | 0.4 | 0.6 | 0.5 | 0.4 | 0.3 | 0.3 | – | – | – | Binding of serum 1a to linear peptide (PEPSCAN-ELISA) [4]: 0.6; Binding of serum 1b to linear peptide (PEPSCAN-ELISA) [4]: 0.4; Binding of serum 2 to linear peptide (PEPSCAN-ELISA) [4]: 0.3; Binding of serum 6 to linear peptide (PEPSCAN-ELISA) [4]: 0.4; Binding of serum 37 to linear peptide (PEPSCAN-ELISA) [4]: 0.9; Binding of serum 62 to linear peptide (PEPSCAN-ELISA) [4]: 0.9; Binding of serum London to linear peptide (PEPSCAN-ELISA) [4]: 1.4; Binding of serum SARS-green to linear peptide (PEPSCAN-ELISA) [4]: 0.4; Binding of serum SARS-yellow to linear peptide (PEPSCAN-ELISA) [4]: 1.0
2 | NTNSGPDDQIGYYRR | 0.1 | 0.3 | 0.7 | 0.7 | 0.7 | 0.9 | 0.1 | 0.6 | 0.5 | 0.4 | 0.5 | 0.3 | 0.9 | 0.8 | 0.5 | 0.6 | 0.6 | 0.2 | 0.1 | 0.2 | Binding of serum 6 to linear peptides of protein N of SARS-CoV Urbani [4]: 0.2; Binding of serum 37 to linear peptides of protein N of SARS-CoV Urbani [4]: 0.6; Binding of serum 62 to linear peptides of protein N of SARS-CoV Urbani [4]: 0.6; Binding of serum London to linear peptides of protein N of SARS-CoV Urbani [4]: 0.4; Binding of serum SARS-green to linear peptides of protein N of SARS-CoV Urbani [4]: 0.3; Binding of serum SARS-yellow to linear peptides of protein N of SARS-CoV Urbani [4]: 0.7
3 | PAADMDDFSRQLQNS | 0.1 | 0.2 | – | – | – | – | 0.2 | 0.3 | 0.3 | 0.1 | 0.3 | 1.1 | 0.6 | 0.3 | 0.3 | 0.3 | 0.3 | 0.3 | 0.2 | 0.2 | Control Serum Blood-Bank Looped peptides [2]: 0.3; Control serum Blood-bank linear peptides [2]: 0.8; Control serum LUMC linear peptides [2]: 0.8; Control serum LUMC looped peptides [2]: 0.3; Binding of serum 6 to linear peptides of protein N of SARS-CoV Urbani [4]: 0.6; Binding of serum 37 to linear peptides of protein N of SARS-CoV Urbani [4]: 0.8; Binding of serum 62 to linear peptides of protein N of SARS-CoV Urbani [4]: 0.7; Binding of serum London to linear peptides of protein N of SARS-CoV Urbani [4]: 0.6; Binding of serum SARS-green to linear peptides of protein N of SARS-CoV Urbani [4]: 0.3; Binding of serum SARS-yellow to linear peptides of protein N of SARS-CoV Urbani [4]: 0.5
4 | PDDQIGYYRRATRRV | 0.1 | 0.3 | 0.8 | 0.6 | 0.6 | 0.8 | – | – | 0.4 | 0.3 | 0.6 | 0.5 | 0.9 | 0.8 | 0.5 | 0.8 | 0.7 | 0.2 | 0.1 | 0.2 | Recognition of the peptide by the rabbit serum [3]: recognized; Binding of serum 6 to linear peptides of protein N of SARS-CoV Urbani [4]: 0.2; Binding of serum 37 to linear peptides of protein N of SARS-CoV Urbani [4]: 0.6; Binding of serum 62 to linear peptides of protein N of SARS-CoV Urbani [4]: 0.5; Binding of serum London to linear peptides of protein N of SARS-CoV Urbani [4]: 0.4; Binding of serum SARS-green to linear peptides of protein N of SARS-CoV Urbani [4]: 0.3; Binding of serum SARS-yellow to linear peptides of protein N of SARS-CoV Urbani [4]: 0.6
